Measured values reported in ChEMBL document CHEMBL1759888, “Biological evaluation of polyhalo 1,3-diazaheterocycle fused isoquinolin-1(2H)-imine derivatives” (Eur J Med Chem, 2011).
≈ marks a conversion by molar mass, not a printed value.

Assays:
[1] = Lipophilicity, log P of the compound; format: physicochemical; details: octanol/water
[2] = test system: A-431; assay: Anticancer activity against human A431 cells after 72 hrs by MTT assay; details: A-431, 72 h
[3] = test system: HL-60; assay: Anticancer activity against human HL60 cells after 48 hrs by MTT assay; details: HL-60, 48 h
[4] = test system: K562; assay: Anticancer activity against human K562 cells after 48 hrs by MTT assay; details: K562, 48 h
[5] = test system: HepG2; assay: Anticancer activity against human HepG2 cells after 72 hrs by MTT assay; details: HepG2, 72 h
[6] = test system: SK-OV-3; assay: Anticancer activity against human SKOV3 cells after 72 hrs by MTT assay; details: SK-OV-3, 72 h

| logP [1] | IC50 [2] [µg/mL] | IC50 [3] [µg/mL] | IC50 [4] [µg/mL] | IC50 [5] [µg/mL] | IC50 [6] [µg/mL] | SMILES |
| --- | --- | --- | --- | --- | --- | --- |
| 3.21 | 2.1 (≈ 5.05 µM) | 1 (≈ 2.41 µM) | 0.5 (≈ 1.2 µM) | 2 (≈ 4.81 µM) | 23.8 (≈ 57.2 µM) | COc1ccc(C(=O)c2c3n(c(=N)c4c(F)c(C#N)c(F)c(Cl)c24)CCO3)cc1 |
| 2.62 | 7.5 (≈ 18.8 µM) | 0.5 (≈ 1.26 µM) | 0.4 (≈ 1 µM) | 0.9 (≈ 2.26 µM) |  | COc1ccc(C(=O)c2c3n(c(=N)c4c(F)c(C#N)c(F)c(F)c24)CCN3)cc1 |
| 3.85 | 27.5 (≈ 66.6 µM) | 14.6 (≈ 35.4 µM) | 2.3 (≈ 5.57 µM) | 24.6 (≈ 59.6 µM) | 76.4 (≈ 185 µM) | Cc1ccc(C(=O)c2c3n(c(=N)c4c(F)c(C#N)c(F)c(Cl)c24)CCCN3)cc1 |
| 4.02 | 2.1 (≈ 4.69 µM) | 0.3 (≈ 0.67 µM) | 0.7 (≈ 1.56 µM) | 11.3 (≈ 25.2 µM) |  | COc1ccc(C(=O)c2c3n(c(=N)c4c(Cl)c(C#N)c(Cl)c(Cl)c24)CCN3)cc1 |
| 3.26 | 1.9 (≈ 4.58 µM) | 0.2 (≈ 0.482 µM) | 0.3 (≈ 0.723 µM) | 1.2 (≈ 2.89 µM) |  | COc1ccc(C(=O)c2c3n(c(=N)c4c(F)c(C#N)c(F)c(Cl)c24)CCN3)cc1 |
| 3.27 | 4.8 (≈ 12.5 µM) | 0.1 (≈ 0.26 µM) | 0.4 (≈ 1.04 µM) | 0.3 (≈ 0.78 µM) | 5.8 (≈ 15.1 µM) | N#Cc1c(F)c(Cl)c2c(C(=O)c3ccccc3)c3n(c(=N)c2c1F)CCN3 |

The remaining lines, values behind:

| SMILES | logP [1] | IC50 [2] [µg/mL] | IC50 [3] [µg/mL] | IC50 [4] [µg/mL] | IC50 [5] [µg/mL] | IC50 [6] [µg/mL] |
| --- | --- | --- | --- | --- | --- | --- |
| CC(=O)c1c2n(c(=N)c3c(F)c(C#N)c(F)c(Cl)c13)CCN2 | 1.67 | 20.4 (≈ 63.2 µM) | 0.9 (≈ 2.79 µM) | 0.4 (≈ 1.24 µM) | 6.4 (≈ 19.8 µM) | 6.2 (≈ 19.2 µM) |
| N#Cc1c(Cl)c(Cl)c2c(C(=O)c3ccccc3)c3n(c(=N)c2c1Cl)CCN3 | 4.03 | 3.4 (≈ 8.14 µM) | 0.8 (≈ 1.92 µM) | 0.7 (≈ 1.68 µM) | 4.4 (≈ 10.5 µM) | 19.7 (≈ 47.2 µM) |
| CCOC(=O)c1c2n(c(=N)c3c(F)c(C#N)c(F)c(Cl)c13)CCN2 | 2.68 | 2.2 (≈ 6.24 µM) | 0.003 (≈ 0.00851 µM) | 0.0008 (≈ 0.00227 µM) | 1.5 (≈ 4.25 µM) | 0.05 (≈ 0.142 µM) |
| CC(=O)c1c2n(c(=N)c3c(F)c(C#N)c(F)c(F)c13)CCN2 | 1.03 | 4.4 (≈ 14.4 µM) | 0.02 (≈ 0.0653 µM) | 0.1 (≈ 0.327 µM) | 3.1 (≈ 10.1 µM) | 0.02 (≈ 0.0653 µM) |
| Cc1ccc(C(=O)c2c3n(c(=N)c4c(Cl)c(C#N)c(Cl)c(Cl)c24)CCCN3)cc1 | 4.61 | > 1000 | 58.2 (≈ 131 µM) | 9.3 (≈ 20.9 µM) | 277 (≈ 621 µM) | 826 (≈ 1850 µM) |
| N#Cc1c(F)c(F)c2c(C(=O)c3ccc(Cl)cc3)c3n(c(=N)c2c1F)CCCN3 | 3.44 | 4.3 (≈ 10.3 µM) | 4.7 (≈ 11.3 µM) | 0.5 (≈ 1.2 µM) | 8.4 (≈ 20.2 µM) | 15.1 (≈ 36.2 µM) |
| N#Cc1c(Cl)c(Cl)c2c(C(=O)c3ccc(Cl)cc3)c3n(c(=N)c2c1Cl)CCN3 | 4.76 | 20.3 (≈ 44.9 µM) | 2.6 (≈ 5.75 µM) | 2.4 (≈ 5.31 µM) | 37.6 (≈ 83.2 µM) | 31.4 (≈ 69.4 µM) |
| COc1ccc(C(=O)c2c3n(c(=N)c4c(Cl)c(C#N)c(Cl)c(Cl)c24)CCCN3)cc1 | 4.1 | 56.9 (≈ 123 µM) | 4.4 (≈ 9.53 µM) | 1.4 (≈ 3.03 µM) | 400 (≈ 866 µM) | 67.2 (≈ 146 µM) |
| N#Cc1c(Cl)c(Cl)c2c(C(=O)c3ccccc3)c3n(c(=N)c2c1Cl)CCO3 | 3.97 | 14.5 (≈ 34.6 µM) | 6 (≈ 14.3 µM) | 2.2 (≈ 5.25 µM) | 0.3 (≈ 0.717 µM) | 17.4 (≈ 41.6 µM) |
| N#Cc1c(F)c(Cl)c2c(C(=O)c3ccccc3)c3n(c(=N)c2c1F)CCO3 | 3.21 | 2.3 (≈ 5.96 µM) | 1.5 (≈ 3.89 µM) | 1.7 (≈ 4.41 µM) | 3.6 (≈ 9.33 µM) | 29.2 (≈ 75.7 µM) |
| N#Cc1c(F)c(F)c2c(C(=O)c3ccccc3)c3n(c(=N)c2c1F)CCO3 | 2.57 | 0.3 (≈ 0.812 µM) | 0.008 (≈ 0.0217 µM) | 0.0002 (≈ 0.000542 µM) | 0.1 (≈ 0.271 µM) | 0.2 (≈ 0.542 µM) |
| CC(=O)c1c2n(c(=N)c3c(Cl)c(C#N)c(Cl)c(Cl)c13)CCN2 | 2.43 | 308 (≈ 866 µM) | 4.7 (≈ 13.2 µM) | 3.6 (≈ 10.1 µM) | 503 (≈ 1410 µM) | 78.4 (≈ 220 µM) |
